Entries after “also recorded” stand apart in the source; their conditions may differ. Like-named read-outs stand apart in the source and are kept apart here.
Experiments:
[1] = test system: HER2-overexpressing breast cancer cells; assay: Cell cycle, PARP cleavage, apoptosis and Hsp70 induction in HER2-overexpressing breast cancer cells; type: cell-based
C2C12 cells = assay: Viability of C2C12 cells visualized by light microscopy; type: cell-based, mouse; settings: 24 h
[2] = test system: Hsp70 induction and AKT degradation (cytosolic Hsp90 hallmarks) in C2C12 cells; assay: Western blot of Hsp70 induction and AKT degradation in C2C12 cells; type: cell-based, mouse; settings: 24 hrs
Experimental: Cell fractionation and immunoblotting. Cells were either treated with DMSO (vehicle) or indicated compounds for 24 hr and lysed in RIPA buffer (50 mM Tris-HCl, pH 7.4, 150 mM NaCl, 0.5% sodium deoxycholate and 0.5% NP40) supplemented with cocktail protease inhibitors (Roche) to produce whole cell lysates. Lysates for cytosol and membrane fractions were harvested using ProteoExtract Subcellular Proteome Extraction Kit (Calbiochem) following the manufacturer's instructions. Protein concentrations were determined using BCA kit (Pierce) according to the manufacturer's instructions. […] After washing off the excess antibodies, the membranes were incubated with the corresponding horseradish peroxidase (HRP) conjugated secondary antibody. Blots were visualized by autoradiography using the Enhanced Chemiluminescence Detection System (GE Healthcare) according to manufacturer's instructions. For all gels 3-actin was used as a protein loading control.

[3] = test system: TLR9 ligand CpG DNA induced TNF-α production in RAW 264.7 macrophages; assay: TNFα ELISA, CpG DNA stimulated macrophages; type: cell-based, mouse
MKN74 cells = assay: Cell viability assessment (CellTiter-Glo); type: cell-based
LRP6 in the normal GI = assay: PD analysis of normal GI tissues (Western blot); type: in vivo, mouse
PANC-1 cells = assay: Apoptosis assessment (Annexin V / 7AAD); type: cell-based
Excerpt: (§1) Annexin V Apoptosis with 7-AAD has been specifically designed for the identification of apoptotic and necrotic cells. Annexin V (or Annexin A5) is a member of the annexin family of intracellular proteins that binds to phosphatidylserine (PS) in a calcium-dependent manner. PS is normally only found on the intracellular leaflet of the plasma membrane in healthy cells, but during early apoptosis, membrane asymmetry is lost and PS translocates to the external leaflet. Fluorochrome-labeled Annexin V can then be used to specifically target and identify apoptotic cells. Annexin V binding alone cannot differentiate between apoptotic and necrotic cells. To help distinguish between the necrotic and apoptotic cells 7-amino-actinomycin D (7-AAD) is used. Early apoptotic cells will exclude 7-AAD, while late stage apoptotic cells will stain positively, due to the passage of these dyes into the nucleus where they bind to DNA. 7-AAD (7-amino-actinomycin D) has a high DNA binding constant and is efficiently excluded by intact cells. It is useful for DNA analysis and dead cell discrimination during flow cytometric analysis. When excited by 488 laser light, 7-AAD fluorescence is detected in the far red range of the spectrum (650 nm long-pass filter).
(§2) Cell cycle and apoptosis assessment. Cell cycle and apoptosis were assessed by flow cytometry after single staining with propidium iodide (PI, BD Pharmingen) or double staining with AnnexinV-FITC (BD Pharmingen) and 7AAD (BD Pharmingen), respectively. Specifically, for cell cycle analysis, cells were washed twice with cold PBS and fixed in 70% ethanol overnight at 4° C. Fixed cells were collected at 1800 rpm for 10 min and stained with PBS containing PI and DNase-free RNase A (Sigma-Aldrich) for 1 h at room temperature in the dark. DNA content was measured by BD LSRII flow cytometer and cell further analyzed using program of cell cycle analysis in FloJo (Ashland, OR). The chicken erythrocyte nuclei singlets (CEN, Biosure) were used as the reference. For apoptosis assessment, live cells were collected, washed twice with cold PBS, resuspended in Binding Buffer and stained with AnnexinV-FITC and 7AAD for 15 min at room temperature in the dark. Signals from FL1 and FL3 channels were collected by MACSQuant analyzer and further analyzed using FloJo. Early apoptosis was defined as AnnexinV+/7AAD−, and late apoptosis was observed as AnnexinV+/7AAD+.

OE19 cells [4] = assay: Apoptosis assessment (Annexin V / 7AAD); type: cell-based
Excerpt: as §1, §2

NCI-N87 cells = assay: Apoptosis assessment (Annexin V / 7AAD); type: cell-based
Excerpt: as §1, §2

Capan-2 cells = assay: Cell viability assessment (CellTiter-Glo); type: cell-based
in vivo = assay: in vivo; set-up: species or system mouse
[5] = test system: Toll-like receptor 9 (TLR9) trafficking in HEK293 cells transfected with HA-TLR9; assay: TLR9-trafficking assay; type: cell-based, human; settings: 24 h treatment
Experimental: TLR^9-trafficking assay (Yang, Y. et al. Heat shock protein gp96 is a master chaperone for toll-like receptors and is important in the innate function of macrophages. Immunity 26, 215-26 (2007)). HEK 293T cells were transfected with pUNO-hTLR9-HA (Invivogen) using X-tremgene HP (Roche) according to the manufacturer's instructions. At 24 hrs post-transfection, cells were split onto cell culture chamber slides (Lab-Tek). Cells were then treated for 24 hrs with indicated compound at varying concentrations. After treatment, cells were fixed for 20 min in 4% paraformaldehyde in PBS, permeabilized with 0.1% Triton-X 100 in PBS for 10 min, blocked with 3% BSA in PBS for 30 min, followed by staining for 1 hr with an anti-HA antibody (Abcam, ab9110) or a normal rabbit IgG. Cells were washed with PBS, stained with an anti-rabbit-Cy3 antibody (Invitrogen) and finally mounted in the dark at 4° C. with Prolong Gold Antifade reagent (with DAPI). Cells were visualized under a confocal microscope (Leica Upright Confocal SP5). Fluorescence intensity was quantified using MetaMorph Microscopy Automation and Image Analysis Software (Molecular Devices Inc.) and normalized to the cell number.

OE19 cells [6] = assay: Cell viability assessment (CellTiter-Glo); type: cell-based

CC(C)NCCCn1c(Sc2cc(Cl)cc(Cl)c2)nc2c(N)ncnc21 [PU-WS13]
accumulation of cells in sub-G1 phase, time first observed post-treatment [1]: 1 to 2 h | cells exhibiting markers of early- and late-stage apoptosis [1]: substantial increase | cleavage of PARP [1]: cleavage of PARP | feed-back heat shock response (Hsp70 induction) [1]: little to no Hsp70 induction | toxicity to C2C12 cells (C2C12 cells): not toxic | AKT degradation [2]: lack of Hsp70 induction and AKT degradation; also recorded: has no effect | Hsp70 induction [2]: lack of Hsp70 induction; also recorded: has no effect | CpG DNA induced TNF-α production [3]: inhibited this response in a concentration dependent manner; also recorded: inhibit | sensitivity to Grp94 inhibition (MKN74 cells): not sensitive | LRP6 levels in normal GI (LRP6 in the normal GI; 75 mg/kg): could not detect a significant decrease in LRP6 | LRP6 levels in normal GI (LRP6 in the normal GI; 150 mg/kg): no acute tox or change in LRP6 levels | induction of apoptosis (PANC-1 cells): substantial increase; also recorded: more potent at killing cells through apoptosis | cells exhibiting markers of early- and late-stage apoptosis (OE19 cells [4]): substantial increase | cells exhibiting markers of early- and late-stage apoptosis (NCI-N87 cells): substantial increase | effect on cell growth (Capan-2 cells): no effect | AUC0-24h for stomach relative to tumor AUC0-24h (in vivo; 75 mg/kg ip): 1.4 fold | AUC0-24h for the large intestine relative to tumor AUC0-24h (in vivo; 75 mg/kg ip): 2 fold | concentration at 2 h (in vivo; female, nu/nu athymic, mouse, plasma, intraperitoneal, 75 mg/kg ip, read-out: PU-WS13 level in the plasma): 100 µM | AUC(0-t) (in vivo; female, nu/nu athymic, mouse, plasma, 75 mg/kg ip, read-out: AUC0-24 h plasma): 1260 µM·h | concentration at 2 h (in vivo; female, nu/nu athymic, mouse, tumor, intraperitoneal, 75 mg/kg ip, read-out: PU-WS13 level in tumor): ~850 µM | concentration at 24 h (in vivo; female, nu/nu athymic, mouse, tumor, intraperitoneal, single dose of 75 mg/kg, 24 h post-administration): 0.5 µM | AUC(0-t) (in vivo; female, nu/nu athymic, mouse, tumor, 75 mg/kg ip, read-out: AUC0-24 h tumor): 9130 µM·h | TLR9 trafficking [5]: inhibits TLR^9 trafficking | sensitivity to Grp94 inhibition (OE19 cells [6]): highly susceptible

— patent US12600725B2 (Memorial Sloan-Kettering Cancer Center, priority 2013, dated 2026)
